Reference: patent publication US20120095046A1, “Amido-Isothiazole Compounds and Their Use as Inhibitors of 11Beta-HSD1 for the Treatment of Metabolic Syndrome and Related Disorders” (THE UNIVERSITY OF EDINBURGH, priority 2009, published 2012)

What was measured:
human 11β-HSD1 enzyme = target: T1, human 11β-HSD1 enzyme (Homo sapiens, UniProt P28845); assay: Cellular in vitro 11β-HSD1 enzyme inhibition assay (SPA, HEK293/11β-HSD1 cells); format: cell-based; details: HEK293 cells stably transfected with human 11β-HSD1; 22 nM tritiated cortisone, 2 hours
T1 construct: stably transfected with a construct containing the full-length gene coding for the human 11β-HSD1 enzyme; expressed in transfected cells; HEK293/11β-HSD1)
Procedure: Cellular In Vitro 11β-HSD1 Enzyme Inhibition Assay
Compounds were assessed by a Scintillation Proximity Assay (SPA) performed according to the following protocol:
HEK293 cells were stably transfected with a construct containing the full-length gene coding for the human 11β-HSD1 enzyme to create HEK293/11β-HSD1 cells. Cells were routinely cultured in DMEM containing 10% calf foetal serum, 1% glutamine, and 1% penicillin and streptomycin. Prior to assay, cells were plated at 2×10^4 cells/well in 96-well poly-D-Lys coated flat-bottomed microplates and incubated in 5% CO2, 95% O2 at 37° C. for 24 hours. The media in each well was removed immediately before assay.
Compounds to be tested were dissolved in DMSO at 10 mM and serially diluted into water containing 10% DMSO. Diluted compounds at a volume of 10 μL were added to wells of a 96-well V-bottomed microplate. A solution of DMEM, 1% glutamine, 1% penicillin and streptomycin, and 22 nM tritiated cortisone was prepared and 90 μL added to each well of the assay plate. This solution (100 μL/well) was transferred to the plate containing the cells. The plate was then incubated in 5% CO2, 95% O2 at 37° C. for 2 hours.
Following this incubation, 50 μL of the assay solution was transferred to each well of a 96-well scintillation microplate. A mixture consisting of anti-mouse YSi SPA beads, pre-mixed with anti-cortisol antibody in assay buffer (50 mM Tris.HCl, pH 7.0; 300 mM NaCl; 1 mM EDTA, 5% glycerol) was prepared and 50 μL added to each well of the scintillation microplate. An adhesive strip was applied to the microplate and the plate gently shaken for at least 2 hours at room temperature, and then spun briefly on a low speed centrifuge. The plate was read on a scintillation counter suitable for 96-well microplates. For the calculation of percentage inhibition, a series of wells were added to the plate that represented the assay maximum and the assay minimum: one set that contained substrate without cells (minimum) and another set that contained substrate and cells without any compound (maximum).
The calculation of median inhibitory concentration (IC50) values for the compounds was performed using GraphPad Prism® software. Dose-response curves for each compound were plotted as fractional inhibition and data fitted to the four parameter logistic equation.

human 11β-HSD2 = target: T2, human 11β-HSD2 (Homo sapiens, UniProt P80365); assay: Cellular in vitro 11β-HSD2 enzyme inhibition assay (CHO cells, TLC/phosphoimager); format: cell-based; details: CHO cells stably transfected with human 11β-HSD2; 22 nM tritiated cortisol, 16 hours
T2 construct: CHO cells stably transfected with the full-length gene coding for human 11β-HSD2 were used; expressed in transfected cells
T2 sequence (P80365 1-405): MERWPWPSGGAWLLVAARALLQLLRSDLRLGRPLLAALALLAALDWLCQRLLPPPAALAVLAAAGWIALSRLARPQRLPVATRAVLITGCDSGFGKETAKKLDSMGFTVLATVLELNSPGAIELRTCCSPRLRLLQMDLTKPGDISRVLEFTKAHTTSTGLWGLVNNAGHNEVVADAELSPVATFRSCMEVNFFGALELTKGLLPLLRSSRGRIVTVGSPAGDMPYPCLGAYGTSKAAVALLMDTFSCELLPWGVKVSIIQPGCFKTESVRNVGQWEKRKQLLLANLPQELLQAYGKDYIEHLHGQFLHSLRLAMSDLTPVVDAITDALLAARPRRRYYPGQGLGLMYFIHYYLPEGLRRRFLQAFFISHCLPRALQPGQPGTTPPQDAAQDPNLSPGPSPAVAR
Procedure: Cellular In Vitro 11β-HSD2 Enzyme Inhibition Assay
For measurement of inhibition of 11β-HSD2, CHO cells stably transfected with the full-length gene coding for human 11β-HSD2 were used. Assays were carried out in 96-well microplates containing 1×10^5 cells/well. Controls and compounds were plated as above, so that the final DMSO concentration in each well was 1%. To initiate the assay, 90 μL of a solution of HAMS F-12 medium containing 1% glutamine, 1% penicillin and streptomycin, and 22 nM tritiated cortisol was added to each well of the assay plate. The plate was then incubated in 5% CO2, 95% O2 at 37° C. for 16 hours.
The assay solutions were transferred to glass tubes and 20 μL ethyl acetate added to each tube. Each tube was vortexed thoroughly and the upper layer containing the tritiated steroid transferred to a fresh glass tube. The solvent was evaporated by placing the tubes in a heating block at 65° C. under a stream of Nitrogen gas. 20 μL ethanol was added to each of the dried samples and vortexed briefly. Each sample was applied to a silica TLC plate and the plate dried. The plate was placed vertically in a glass tank containing 92% chloroform:8% ethanol and the solvent allowed to rise up the plate. The plate was dried, placed in an imaging cassette, and overlayed with a tritium imaging plate for 1-2 days. The amount of enzyme inhibition in each sample was determined by measuring the intensity of the substrate and product spots using a phosphoimager.
IC50 values for inhibitors were determined as described for 11β-HSD1.

T1 sequence (P28845 whole entry): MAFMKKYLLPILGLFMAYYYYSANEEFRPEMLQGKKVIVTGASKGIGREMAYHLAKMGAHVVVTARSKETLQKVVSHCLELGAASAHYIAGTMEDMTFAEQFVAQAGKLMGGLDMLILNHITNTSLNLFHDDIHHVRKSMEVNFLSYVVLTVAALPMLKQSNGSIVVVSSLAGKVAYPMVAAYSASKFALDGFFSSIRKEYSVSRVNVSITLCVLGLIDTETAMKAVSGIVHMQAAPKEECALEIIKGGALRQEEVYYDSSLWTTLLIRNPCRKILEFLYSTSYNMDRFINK

IC50 (human 11β-HSD1 enzyme) [nM]	IC50 (human 11β-HSD2) [nM]	SMILES
18	> 10000	O=C(c1cc(-c2cn[nH]c2)sn1)N1CCC[C@@H]2CCCC[C@@H]21 [BB-01, (4aS,8aS)-Octahydro-quinolin-1-yl-[5-(1H-pyrazol-4-yl)-isothiazol-3-yl]-methanone]
≤ 500	> 10000	O=C1c2ccccc2C(=O)N1c1cc(C(=O)N2CCC[C@@H]3CCCC[C@@H]32)ns1 [BB-03, 2-[3-((4aS,8aS)-Octahydro-quinoline-1-carbonyl)-isothiazol-5-yl]-isoindole-1,3-dione]
≤ 500	> 10000	O=C(c1cc(-c2ccccc2)sn1)N1CCCC2CCCCC21 (stereo not drawn) [AA-02, (Octahydro-quinolin-1-yl)-(5-phenyl-isothiazol-3-yl)-methanone]
62	> 10000	O=C(c1cc(C2CCOCC2)sn1)N1CCC[C@@H]2CCCC[C@@H]21 [CC-01, (4aS,8aS)-Octahydro-quinolin-1-yl-[5-(tetrahydro-pyran-4-yl)-isothiazol-3-yl]-methanone]
≤ 500	> 10000	O=C(c1cc(-c2cn[nH]c2)sn1)N1CCCC1c1ccc(F)cc1 (stereo not drawn) [BB-02, [2-(4-Fluoro-phenyl)-pyrrolidin-1-yl]-[5-(1H-pyrazol-4-yl)-isothiazol-3-yl]-methanone]
59	> 10000	O=C(c1cnsc1-c1ccccc1)N1CCCC2CCCCC21 (stereo not drawn) [AA-01, (Octahydro-quinolin-1-yl)-(5-phenyl-isothiazol-4-yl)-methanone]
